The values that follow come from patent publication US9765056B2, “Indole and pyrrole compounds, a process for their preparation and pharmaceutical compositions containing them” (LES LABORATOIRES SERVIER, priority 2013, dated 2017).

A word on the IC50: it is the concentration that gives 50% inhibition.

One assay addresses Bcl-2 protein (histag-Bcl-2, UniProtKB P10415) (Homo sapiens (Human), UniProt P10415). Description: Inhibition of Bcl-2 by the fluorescence polarisation technique. It is filed as binding. The settings on record: fluorescence polarisation test; method A, or method B where underlined (underlining not visible); read-out: IC50 (nM) Bcl-2 FP. An excerpt: Inhibition of Bcl-2 by the fluorescence polarisation technique
A general note: Fluorescence polarisation rises when a labelled molecule tumbles more slowly, as on binding a larger partner.

In assay [1] the test system is RS4;11 leukaemia tumour line. Description: In vitro cytotoxicity, Microculture Tetrazolium Assay (MTT). The settings on record: Homo sapiens; RS4;11 cells, 48 hours exposure. Format: cell-based. On the procedure: The cytotoxicity studies were carried out on the RS4;11 leukaemia tumour line.
The cells are distributed onto microplates and exposed to the test compounds for 48 hours. The cell viability is then quantified by a colorimetric assay, the Microculture Tetrazolium Assay (Cancer Res., 1987, 47, 939-942).

Molecules are shown by their SMILES. Counter-ions that a name gives are not always drawn.

Sequence of Bcl-2 protein (P10415 whole entry): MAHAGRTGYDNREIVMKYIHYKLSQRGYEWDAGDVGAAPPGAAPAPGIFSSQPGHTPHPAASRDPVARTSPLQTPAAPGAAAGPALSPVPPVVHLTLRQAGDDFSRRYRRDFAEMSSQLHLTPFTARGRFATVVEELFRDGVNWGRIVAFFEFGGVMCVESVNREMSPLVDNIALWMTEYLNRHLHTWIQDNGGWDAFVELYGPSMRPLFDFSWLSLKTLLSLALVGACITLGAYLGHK

Turning to `Cc1cc(C(=O)N(c2ccccc2)c2ccc(O)cc2)cn1-c1cc(O)ccc1C(=O)N1Cc2ccccc2C[C@H]1CN1CCOCC1` [Example 15, 1-(5-Hydroxy-2-{[(3S)-3-(morpholin-4-ylmethyl)-3,4-dihydroisoquinolin-2(1H)-yl]carbonyl}phenyl)-N-(4-hydroxyphenyl)-5-methyl-N-phenyl-1H-pyrrole-3-carboxamide], the values for the IC50 (at Bcl-2 protein; in assay [1]) were 22.1 nM and 759 nM, respectively.
The corresponding values for `COc1cc(-n2cc(C(=O)N(c3ccc(O)cc3)c3ccc(F)cc3)c3ccccc32)c(C(=O)N2Cc3ccccc3C[C@H]2CN2CCN(C)CC2)cc1O` [Example 201, N-(4-Fluorophenyl)-1-{4-hydroxy-5-methoxy-2-[(3S)-3-[(4-methylpiperazin-1-yl)methyl]-1,2,3,4-tetrahydroisoquinoline-2-carbonyl]phenyl}-N-(4-hydroxyphenyl)-1H-indole-3-carboxamide dihydrochloride] are 3.1 nM and 124 nM.
The corresponding values for `Cc1cc(C(=O)N(c2ccc(O)cc2)c2ccc(F)cc2)cn1-c1cc2c(cc1C(=O)N1Cc3ccccc3C[C@H]1CN1CCN(C)CC1)OCO2` [Example 84, N-(4-Fluorophenyl)-N-(4-hydroxyphenyl)-5-methyl-1-(6-{[(3S)-3-[(4-methylpiperazin-1-yl)methyl]-3,4-dihydroisoquinolin-2(1H)-yl]carbonyl}-1,3-benzodioxol-5-yl)-1H-pyrrole-3-carboxamide] are 6.7 nM and 146 nM.
On to `Cc1cc(C(=O)N(c2ccc(O)cc2)c2ccc(F)cc2)cn1-c1cc(Cl)ccc1C(=O)N1Cc2ccccc2C[C@H]1CN1CCN(C)CC1` [Example 66, 1-(5-Chloro-2-{[(3S)-3-[(4-methylpiperazin-1-yl)methyl]-3,4-dihydroisoquinolin-2(1H)-yl]carbonyl}phenyl)-N-(4-fluorophenyl)-N-(4-hydroxyphenyl)-5-methyl-1H-pyrrole-3-carboxamide], for which the IC50 was determined as 6.6 nM on Bcl-2 protein and 148 nM in assay [1].
In the case of `CN(C)c1ccc(-n2nc(C(=O)N(c3ccccc3)c3ccccc3)c3ccccc32)c(C(=O)N2Cc3ccccc3C[C@H]2CN)c1` [Example 141, 1-{2-[(3S)-3-(Aminomethyl)-1,2,3,4-tetrahydroisoquinoline-2-carbonyl]-4-(dimethylamino)phenyl}-N,N-diphenyl-1H-indazole-3-carboxamide], the IC50 turned out to be 56.7 nM at Bcl-2 protein and 2280 nM in assay [1].
As to `CN1CCN(C[C@@H]2Cc3ccccc3CN2C(=O)c2cc3c(cc2-n2cc(C(=O)N(c4ccc(O)cc4)c4ccc(Cl)cc4)c4ccccc42)OCO3)CC1` [Example 31, N-(4-Chlorophenyl)-N-(4-hydroxyphenyl)-1-(6-{[(3S)-3-[(4-methylpiperazin-1-yl)methyl]-3,4-dihydroisoquinolin-2(1H)-yl]carbonyl}-1,3-benzodioxol-5-yl)-1H-indole-3-carboxamide], the IC50 at Bcl-2 protein is 5.5 nM; in assay [1], 71.4 nM.
The corresponding values for `CN1CCN(C[C@@H]2Cc3ccccc3CN2C(=O)c2cc3c(cc2-n2cc(C(=O)N(c4ccccc4)c4ccc(O)cc4)c4ccc(F)cc42)OCO3)CC1` [Example 197, 6-Fluoro-N-(4-hydroxyphenyl)-1-{6-[(3S)-3-[(4-methylpiperazin-1-yl)methyl]-1,2,3,4-tetrahydroisoquinoline-2-carbonyl]-2H-1,3-benzodioxol-5-yl}-N-phenyl-1H-indole-3-carboxamide] are 9.8 nM and 328 nM.
`Cc1cc(C(=O)N(c2ccccc2)c2ccc(O)c(Cl)c2)cn1-c1cc(Cl)ccc1C(=O)N1Cc2ccccc2C[C@H]1CN1CCN(C)CC1` [Example 27, N-(3-Chloro-4-hydroxyphenyl)-1-(5-chloro-2-{[(3S)-3-[(4-methylpiperazin-1-yl)methyl]-3,4-dihydroisoquinolin-2(1H)-yl]carbonyl}phenyl)-5-methyl-N-phenyl-1H-pyrrole-3-carboxamide hydrochloride]: the figures for the IC50 (at Bcl-2 protein; in assay [1]) were 20.5 nM and 479 nM, respectively.
For `NC[C@@H]1Cc2ccccc2CN1C(=O)c1ccccc1-n1cc(C(=O)N(c2ccccc2)c2ccccc2)c2ccccc21` [Example 123, 1-{2-[(3S)-3-(Aminomethyl)-1,2,3,4-tetrahydroisoquinoline-2-carbonyl]-phenyl}-N,N-diphenyl-1H-indole-3-carboxamide], the IC50 was determined as 90 nM on Bcl-2 protein and 2370 nM in assay [1].
Consider `Cc1cc(C(=O)N(c2ccc(O)cc2)c2ccc3[nH]ccc3c2)cn1-c1cc(Cl)cc(Cl)c1C(=O)N1Cc2ccccc2C[C@H]1CN1CCN(C)CC1` [Example 92, 1-(3,5-Dichloro-2-{[(3S)-3-[(4-methylpiperazin-1-yl)methyl]-3,4-dihydroisoquinolin-2(1H)-yl]carbonyl}phenyl)-N-(4-hydroxyphenyl)-N-(1H-indol-5-yl)-5-methyl-1H-pyrrole-3-carboxamide], for which the IC50 on Bcl-2 protein is 9.6 nM; in assay [1] it was 202 nM.
As for `Cc1cc(C(=O)N(c2ccccc2)c2ccc(O)cc2)cn1-c1cc(Cl)c(F)cc1C(=O)N1Cc2ccccc2C[C@H]1CN1CCN(C)CC1` [Example 28, 1-(5-Chloro-4-fluoro-2-{[(3S)-3-[(4-methylpiperazin-1-yl)methyl]-3,4-dihydroisoquinolin-2(1H)-yl]carbonyl}phenyl)-N-(4-hydroxyphenyl)-5-methyl-N-phenyl-1H-pyrrole-3-carboxamide], the half-maximal inhibitory concentration (IC50) on Bcl-2 protein is 8 nM; in assay [1], 378 nM.
In the case of `CC(C)c1ccc(N(C(=O)c2cn(-c3cc4c(cc3C(=O)N3Cc5ccccc5C[C@H]3CN3CCN(C)CC3)OCO4)c3ccccc23)c2ccc(O)c(Cl)c2)cc1` [Example 64, N-(3-Chloro-4-hydroxyphenyl)-1-(6-{[(3S)-3-[(4-methylpiperazin-1-yl)methyl]-3,4-dihydroisoquinolin-2(1H)-yl]carbonyl}-1,3-benzodioxol-5-yl)-N-[4-(propan-2-yl)phenyl]-1H-indole-3-carboxamide hydrochloride], the IC50 amounted to 296 nM at Bcl-2 protein and 1360 nM in assay [1].
On to `CN1CCN(C[C@@H]2Cc3ccccc3CN2C(=O)c2cc3c(cc2-n2cc(C(=O)N(c4ccccc4)c4ccc(O)cc4)c4ccccc42)OC(F)(F)O3)CC1` [Example 182, 1-{2,2-Difluoro-6-[(3S)-3-[(4-methylpiperazin-1-yl)methyl]-1,2,3,4-tetrahydroisoquinoline-2-carbonyl]-2H-1,3-benzodioxol-5-yl}-N-(4-hydroxyphenyl)-N-phenyl-1H-indole-3-carboxamide], for which the IC50 was 111 nM on Bcl-2 protein and 1850 nM in assay [1].
For the compound `NC[C@@H]1Cc2ccccc2CN1C(=O)c1ccccc1-n1nc(C(=O)N(c2ccccc2)c2ccccc2)c2ccccc21` [Example 122, 1-{2-[(3S)-3-(Aminomethyl)-1,2,3,4-tetrahydroisoquinoline-2-carbonyl]phenyl}-N,N-diphenyl-1H-indazole-3-carboxamide], the IC50 came out at 53.3 nM at Bcl-2 protein and 2290 nM in assay [1].
`Cc1cc(C(=O)N(c2ccc(O)cc2)c2ccc3[nH]ccc3c2)cn1-c1cc(Br)ccc1C(=O)N1Cc2ccccc2C[C@H]1CN1CCC(F)(F)CC1` [Example 79, 1-(5-Bromo-2-{[(3S)-3-[(4,4-difluoropiperidin-1-yl)methyl]-3,4-dihydroisoquinolin-2(1H)-yl]carbonyl}phenyl)-N-(4-hydroxyphenyl)-N-(1H-indol-5-yl)-5-methyl-1H-pyrrole-3-carboxamide]: the IC50 turned out to be 85.5 nM on Bcl-2 protein and 344 nM in assay [1].
